Laboratory results as given in patent US10111822B2, “External dermal composition for anti-ageing and method for producing the same” (Hayashibara Co., Ltd., priority 2012, dated 2018).

Legend:
Assay type in all cases: cell-based, human
ZO-1 = assay: TJ-related protein ZO-1 in NHEK cells (Western); settings: 3 days, CaCl2 positive control = 100%, no addition 38%
Description: The following experiment was conducted to examine the effect of ascorbic acid 2-glucoside on the production of TJ-related proteins that constitute cell-cell adhesion structures by focusing on occludin and ZO-1 that are focused on as TJ-related proteins known to exist in a granular layer of epidermis: As a model for typical normal human epidermal cells, NHEK cells were suspended in EpiLife medium (pH 7.4); inoculated to 12-well microplates at a cell density of 1×10^5 cells/well; cultured overnight under the conditions of 37° C. and 5% v/v CO2; and further cultured for three days under the conditions of 37° C. and 5% v/v CO2 after adding either CaCl2 as a positive control to each well to give a final concentration of 0.5 mM, or “AA2G”, a product name of a particulate composition containing anhydrous crystalline ascorbic acid 2-glucoside, commercialized by Hayashibara Co., Ltd., Okayama, Japan, to give a final concentration of 0.5 or 1 mM. […] A sample of 20 μg protein for each lane per each cell extract in respective wells was applied to sodium dodecyl sulfate polyacrylamide gel electrophoresis (SDS-PAGE) with 10% w/v SDS containing DTT, followed by assaying the concentration of occludin or ZO-1 in each cell extract with “Luminate Western HRP Substrates”, a product name of a premixed, ready-to-use chemiluminescent detection reagent using an internal standard “α-Tubulin”, commercialized by Merck KGaA, Darmstadt, Germany, wherein there were used “F-11”, a product name of an anti-occludin mouse monoclonal antibody, commercialized by Santa Cruz Biotechnology, Inc., Texas, USA, or “ZO1-1A12”, a product name of a ZO-1 mouse monoclonal antibody, commercialized by Invitrogen Corporation, Calif., USA, was used as a first antibody; and “PO447”, a product name of a horseradish peroxidase (HRPO) labeled anti-mouse IgG, commercialized by DAKO Japan Inc., Tokyo, Japan, or “PO448”, a product name of an HRPO-labeled anti-rabbit IgG, commercialized by DAKO Japan Inc., Tokyo, Japan, as a secondary antibody. […]

Filaggrin = assay: Expression of proliferation marker protein filaggrin in NHEK cells (Western); settings: 5 days, control regarded as 50%
Description: (§1) Normal human epidermal keratinocytes from neonatal foreskin (NHEK cells) were prepared into 2.5×10^5 cells/mL with EpiLife medium, inoculated to 12-well plates in a volume of 1 mL/well, and cultured at 37° C. for one day under a 5% v/v CO2 condition. Thereafter, each supernatant was removed, and a medium, to which ascorbic acid 2-glucoside had been added to give a final concentration of 300 or 600 μM, was added to the resulting cells in a volume of 1 mL/well, followed by culturing the cells at 37° C. for two days under a 5% v/v CO2 condition. Another cell culture system, which had been similarly cultured in a medium free of ascorbic acid 2-glucoside, was provided as a control. The cells cultured with ascorbic acid 2-glucoside were further added with a medium supplemented with the same concentration of sodium salt of ascorbic acid 2-glucoside as that in the above medium in a volume of 1 mL/well, and cultured for another three days under the same conditions. […] Each of the resulting extract was centrifuged to collect a supernatant, and a part of which was subjected to protein quantification. […]

Involucrin = assay: Expression of proliferation marker protein involucrin in NHEK cells (Western); settings: 5 days, control regarded as 50%
Description: as §1

How did the “ZO-1 Concentration in cell extract” value (ZO-1; 0.5 mM) turn out when `O=C1O[C@H]([C@@H](O)CO)C(O)=C1O[C@H]1O[C@H](CO)[C@@H](O)[C@H](O)[C@H]1O` [ascorbic acid 2-glucoside, 2-O-α-D-glucosyl-L-ascorbic acid] was run?
Its value is 72%.

And the “ZO-1 Concentration in cell extract” value (ZO-1; 1 mM)?
The value was 92%.

And the “Relative expression level, Filaggrin” value (Filaggrin; 300 μM)?
The value was 65%.

And the “Relative expression level, Filaggrin” value (Filaggrin; 600 μM)?
Its value is 71%.

What about the “Relative expression level, Involucrin” value (Involucrin; 300 μM, calibrated with α-Tubulin) of the same compound?
Its value is 74%.

And the “Relative expression level, Involucrin” value (Involucrin; 600 μM)?
Its value is 84%.
